Among the data in ChEMBL document CHEMBL3638998, “17Beta-hydroxysteroid dehydrogenase type 1 inhibitors for the treatment of hormone-related diseases” (2013) are IC50 values, retold here.

pIC50: −log10 of the molar value.

The data set deals with CYP2C9 (Homo sapiens, UniProt P11712). Description: Inhibition Assay: Inhibition assay using P450 CYP enzymes.
CYP2C9, sequence (P11712 whole entry): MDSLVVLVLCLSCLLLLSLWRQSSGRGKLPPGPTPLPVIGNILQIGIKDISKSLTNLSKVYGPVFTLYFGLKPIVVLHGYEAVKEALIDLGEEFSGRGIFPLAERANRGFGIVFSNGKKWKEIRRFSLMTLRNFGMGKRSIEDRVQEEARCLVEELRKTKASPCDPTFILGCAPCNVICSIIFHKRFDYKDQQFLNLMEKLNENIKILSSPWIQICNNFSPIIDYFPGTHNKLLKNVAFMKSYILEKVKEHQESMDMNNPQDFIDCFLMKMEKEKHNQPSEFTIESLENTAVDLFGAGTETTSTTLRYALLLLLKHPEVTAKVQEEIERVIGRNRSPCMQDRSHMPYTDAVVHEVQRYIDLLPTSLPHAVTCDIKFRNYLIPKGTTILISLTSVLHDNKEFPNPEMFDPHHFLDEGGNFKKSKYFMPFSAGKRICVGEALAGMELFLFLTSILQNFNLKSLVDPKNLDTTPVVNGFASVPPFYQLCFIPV

Turning to `CNC(=O)/C=C/c1cc(OC)cc(-c2ccc3cc(OC)ccc3c2)c1`, the pIC50 (as a rule, the IC50 on a negative log10 scale, so that one unit is a factor of ten) was 7.52.
